Measurements taken from ChEMBL document CHEMBL3259548, “Design, synthesis and biological evaluation of novel isoniazid derivatives with potent antitubercular activity” (Eur J Med Chem, 2014).
In brackets after ≈: the same amount, converted by molar mass.

What was measured:
Format in all cases: functional
[1] = tested on: Mycobacterium tuberculosis; test: Antitubercular activity against Mycobacterium tuberculosis H37Rv clinical isolate harboring katG S315T mutant by BACTEC 960 assay
[2] = tested on: Mycobacterium tuberculosis; test: Antitubercular activity against katG-deficient isoniazid-resistant Mycobacterium tuberculosis H37Rv ATCC 27294 by BACTEC 960 assay
[3] = tested on: Mycobacterium tuberculosis; test: Ratio of isoniazid MIC to compound MIC for Mycobacterium tuberculosis H37Rv clinical isolate harboring katG S315T mutant by BACTEC 960 assay

Row | Compound | MIC [1] [µM] | MIC [2] [µM] | Ratio [3]
1 | CC(=O)NNC(=O)c1ccncc1 | >55.8 | > 55.8 | –
2 | O=Cc1cccc(/C=N/NC(=O)c2ccncc2)c1 | >39.5 | > 39.5 | –
3 | O=Cc1ccc(/C=N/NC(=O)c2ccncc2)cc1 | >39.5 | > 39.5 | –
4 | O=C(N/N=C/c1cccc(CO)c1)c1ccncc1 | 39.2 (≈ 10 µg/mL) | > 39.2 | –
5 | O=C(N/N=C/c1ccc(CO)cc1)c1ccncc1 | 39.2 (≈ 10 µg/mL) | > 39.2 | –
6 | O=C(NN=C1CCCC1)c1ccncc1 | 39.4 (≈ 8.01 µg/mL) | > 49.2 | –
7 | O=C(NN=C1CCC(c2ccccc2)CC1)c1ccncc1 (stereo not given) | 34.1 (≈ 10 µg/mL) | > 34.1 | –
8 | COC(=O)c1ccc(/C=N/NC(=O)c2ccncc2)cc1 | 21.2 (≈ 6.01 µg/mL) | – | –
9 | O=C(N/N=C/c1ccc(Oc2ccccc2)cc1)c1ccncc1 | 18.9 (≈ 6 µg/mL) | – | –
10 | CCCCCCCCCC(=O)NNC(=O)c1ccncc1 | 6.9 (≈ 2.01 µg/mL) | > 34.3 | 6
11 | CCCCCC(C)C(=O)NNC(=O)c1ccncc1 (stereo not given) | >38 | – | –
12 | O=C(NNC1CCC(c2ccccc2)CC1)c1ccncc1 (stereo not given) | >33.9 | > 33.9 | –
13 | NNC(=O)c1ccnc(NN)c1 | 47.9 (≈ 8.01 µg/mL) | – | –
14 | NNC(=O)c1ccncc1 [ISONIAZID] | 43.8 (≈ 6.01 µg/mL) | > 72.9 | –
